In the NIST ThermoML archive (doi:10.1016/j.jct.2018.02.022):

Assay: xn = mol fraction of the nth substance listed
Settings: 92.3 kPa, Liquid; for mass density: Vibrating tube method; for viscosity: Concentric cylinders viscometry; for speed of sound: Frequency=3 MHz, Single path-length method

OCCO [1,2-ethanediol] + O
Settings | mass density [kg/m3] | speed of sound [m/s] | viscosity [mPa·s]
293.15 K, x1 = 0.9893 | 1113.4 | – | –
293.15 K, x1 = 1 | 1113.72 | – | –
298.15 K, x1 = 0.0101 | 1001.54 | 1511.9 | –
298.15 K, x1 = 0.0201 | 1005.57 | 1526.3 | –
298.15 K, x1 = 0.0302 | 1009.56 | 1540.2 | –
298.15 K, x1 = 0.0407 | 1013.5 | 1553.8 | –
298.15 K, x1 = 0.0494 | 1016.76 | – | 1.253
298.15 K, x1 = 0.0506 | 1017.08 | 1566.2 | –
298.15 K, x1 = 0.0605 | 1020.55 | 1577.9 | –
298.15 K, x1 = 0.0704 | 1023.96 | 1589.2 | –
298.15 K, x1 = 0.0801 | 1027.15 | 1599 | –
298.15 K, x1 = 0.0905 | 1030.37 | 1609.6 | –
298.15 K, x1 = 0.0986 | 1032.78 | – | 1.68
298.15 K, x1 = 0.0997 | 1033.24 | 1618 | –
298.15 K, x1 = 0.1483 | 1046.12 | – | 2.167
298.15 K, x1 = 0.1493 | 1046.4 | 1655.5 | –
298.15 K, x1 = 0.1985 | 1056.96 | 1681 | –
298.15 K, x1 = 0.2072 | 1058.86 | – | 2.811
298.15 K, x1 = 0.2466 | 1065.86 | – | 3.276
298.15 K, x1 = 0.2487 | 1066.32 | 1696.5 | –
298.15 K, x1 = 0.298 | 1073.51 | – | 3.936
298.15 K, x1 = 0.2998 | 1073.79 | 1705.8 | –
298.15 K, x1 = 0.3318 | 1077.77 | 1708.7 | –
298.15 K, x1 = 0.3399 | 1078.69 | – | 4.507
298.15 K, x1 = 0.3921 | 1084.09 | – | 5.261
298.15 K, x1 = 0.3981 | 1084.61 | 1710.4 | –
298.15 K, x1 = 0.4446 | – | – | 6.062
298.15 K, x1 = 0.4521 | – | 1708.8 | –
298.15 K, x1 = 0.4934 | 1092.05 | 1705.9 | –
298.15 K, x1 = 0.5007 | 1092.56 | – | 6.959
298.15 K, x1 = 0.5485 | 1095.42 | – | 7.764
298.15 K, x1 = 0.552 | – | 1700.9 | –
298.15 K, x1 = 0.5846 | 1097.38 | 1697.6 | –
298.15 K, x1 = 0.6004 | 1098.09 | – | 8.662
298.15 K, x1 = 0.6451 | 1100.1 | – | 9.461
298.15 K, x1 = 0.6481 | 1100.22 | 1691 | –
298.15 K, x1 = 0.6773 | 1101.43 | 1687.8 | –
298.15 K, x1 = 0.7012 | 1102.3 | – | 10.55
298.15 K, x1 = 0.7421 | 1103.69 | 1680.8 | –
298.15 K, x1 = 0.7435 | 1103.76 | – | 11.32
298.15 K, x1 = 0.7811 | 1104.94 | 1676.5 | –
298.15 K, x1 = 0.7907 | 1105.22 | – | 12.24
298.15 K, x1 = 0.8497 | 1106.83 | 1669.3 | –
298.15 K, x1 = 0.8505 | 1106.84 | – | 13.35
298.15 K, x1 = 0.89 | 1107.8 | – | 14.12
298.15 K, x1 = 0.9002 | 1108.06 | 1664.3 | –
298.15 K, x1 = 0.9059 | 1108.17 | 1663.8 | –
298.15 K, x1 = 0.912 | 1108.29 | 1663.3 | –
298.15 K, x1 = 0.9299 | 1108.69 | 1661.5 | –
298.15 K, x1 = 0.9413 | 1108.94 | 1660.4 | –
298.15 K, x1 = 0.9495 | 1109.13 | 1659.6 | –
298.15 K, x1 = 0.9532 | 1109.19 | – | 15.35
298.15 K, x1 = 0.9546 | 1109.23 | 1659.2 | –
298.15 K, x1 = 0.9681 | 1109.49 | 1658.1 | –
298.15 K, x1 = 0.9789 | – | 1657.2 | –
298.15 K, x1 = 0.9893 | – | 1656.1 | –
298.15 K, x1 = 1 | – | 1654.7 | 16.22
